Like-named read-outs stand apart in the source and are kept apart here.
How the values were obtained:
Type in all cases: biochemical
JAK1 = JAK1 (Homo sapiens (Human), UniProt P23458); assay: JAK Caliper Enzyme Assay at 1 mM ATP, JAK1
Protocol: (§1) Compounds of the invention were evaluated by in vitro methods to determine their respective ability to inhibit the JAK kinases (TYK2, JAK1, JAK2, JAK3).
(§2) The human JAK inhibitory activity was determined by using a microfluidic assay to monitor phosphorylation of a synthetic peptide by the recombinant human kinase domain of each of the four members of the JAK family, JAK1, JAK2, JAK3 and TYK2. […] Each assay condition was optimized for enzyme concentration and room temperature incubation time to obtain a conversion rate of 20% to 30% phosphorylated peptide product. Reactions were terminated by the addition of stop buffer containing EDTA. Utilizing the LabChip 3000 mobility shift technology (Caliper Life Science), each assay reaction was sampled to determine the level of phosphorylation. This technology is separation-based, allowing direct detection of fluorescently labeled substrates and products. Separations are controlled by a combination of vacuum pressure and electric field strength optimized for each peptide substrate.
(§3) JAK Caliper Enzyme Assay at 1mM ATP
(§4) Compounds were added to a 384-well plate.
(§5) The data was collected using the HTS Well Analyzer software from Caliper Life Sciences. The data output for data analysis is the percent product converted calculated on peak height (Equation 1). % product converted=100*((product)/(product+substrate)) Equation 1: […]
(§6) The percent effect at each compound concentration was calculated based on the positive and negative control well contained within each assay plate (Equation 2). […] The negative control wells contained DMSO alone (at the same concentration as the compound wells) that was used to set the baseline activity in the assay (i.e., uninhibited JAK1, JAK2, JAK3 or TYK2). % effect=100*([…](positive control-negative control)) Equation 2: […]
(§7) The percent effect was plotted against the compound concentration compound.

JAK2 = JAK2 (Homo sapiens (Human), UniProt O60674); assay: JAK Caliper Enzyme Assay at 1 mM ATP, JAK2
Protocol: as §1, §2, §3, §4, §5, §6, §7

JAK3 = JAK3 (Homo sapiens (Human), UniProt P52333); assay: JAK Caliper Enzyme Assay at 1 mM ATP, JAK3
Protocol: as §1, §2, §3, §4, §5, §6, §7

TYK2 = TYK2 (Homo sapiens (Human), UniProt P29597); assay: JAK Caliper Enzyme Assay at 1 mM ATP, TYK2
Protocol: as §1, §2, §3, §4, §5, §6, §7

Chain of JAK1 (P23458 875-1153): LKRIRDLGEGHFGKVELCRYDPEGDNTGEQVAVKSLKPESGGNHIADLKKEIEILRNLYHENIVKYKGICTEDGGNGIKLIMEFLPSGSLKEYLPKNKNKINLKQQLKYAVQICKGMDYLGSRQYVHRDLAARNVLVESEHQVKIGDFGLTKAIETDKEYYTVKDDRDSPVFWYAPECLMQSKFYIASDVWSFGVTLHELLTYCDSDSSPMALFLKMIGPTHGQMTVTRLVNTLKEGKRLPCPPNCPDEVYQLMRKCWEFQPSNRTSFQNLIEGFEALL
Chain of JAK3 (P52333 822-1111): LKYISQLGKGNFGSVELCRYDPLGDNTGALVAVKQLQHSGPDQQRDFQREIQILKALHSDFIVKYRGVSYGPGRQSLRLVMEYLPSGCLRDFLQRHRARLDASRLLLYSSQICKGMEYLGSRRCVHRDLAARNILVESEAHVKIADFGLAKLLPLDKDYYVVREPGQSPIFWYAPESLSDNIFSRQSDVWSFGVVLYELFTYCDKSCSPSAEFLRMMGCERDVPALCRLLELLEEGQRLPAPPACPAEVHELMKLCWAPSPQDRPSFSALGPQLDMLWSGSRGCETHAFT
Chain of JAK2 (O60674 849-1124): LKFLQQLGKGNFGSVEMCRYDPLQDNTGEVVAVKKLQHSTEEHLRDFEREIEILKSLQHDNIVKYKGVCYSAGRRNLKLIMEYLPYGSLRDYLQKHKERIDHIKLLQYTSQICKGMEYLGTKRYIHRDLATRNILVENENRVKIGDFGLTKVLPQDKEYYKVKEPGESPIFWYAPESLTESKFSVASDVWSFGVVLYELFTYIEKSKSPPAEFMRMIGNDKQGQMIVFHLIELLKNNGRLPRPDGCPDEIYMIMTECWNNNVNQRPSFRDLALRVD
Chain of TYK2 (P29597 897-1176): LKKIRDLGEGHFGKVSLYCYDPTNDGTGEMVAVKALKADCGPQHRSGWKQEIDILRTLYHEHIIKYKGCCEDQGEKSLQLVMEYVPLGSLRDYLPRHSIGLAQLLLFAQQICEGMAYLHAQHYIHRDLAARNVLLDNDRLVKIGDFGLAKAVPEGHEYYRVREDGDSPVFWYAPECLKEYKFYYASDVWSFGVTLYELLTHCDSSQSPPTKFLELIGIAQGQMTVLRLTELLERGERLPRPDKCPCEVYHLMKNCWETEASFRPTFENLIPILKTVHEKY

IC50 (JAK1) [nM] | IC50 (JAK2) [nM] | IC50 (JAK3) [nM] | IC50 (TYK2) [nM] | IC50 (JAK1; JAK Caliper enzyme assay) [nM] | IC50 (JAK3; JAK Caliper enzyme assay) [nM] | IC50 (TYK2; JAK Caliper enzyme assay) [nM] | IC50 (JAK2; JAK Caliper enzyme assay) [nM] | Compound
2820 | 2950 | > 10000 | 1110 |  |  |  |  | 2-[3-{4-[7-(1-methyl-1H-pyrazol-4-yl)-1,6-naphthyridin-5-yl]-1H-pyrazol-1-yl}-1-(2,2,2-trifluoroethyl)azetidin-3- [Example 5]
35 | 39 | 7140 | 15 |  |  |  |  | N#CCC1(n2cc(-c3nc(-c4cn[nH]c4)cc4ncccc34)cn2)CN(CC(F)(F)F)C1 [Example 1, [3-{4-[7-(1H-pyrazol-4-yl)-1,6-naphthyridin-5-yl]-1H-pyrazol-1-yl}-1-(2,2,2-trifluoroethyl)azetidin-3-yl]acetonitrile]
86 | 127 | > 10000 | 50 |  |  |  |  | N#CC[C@H]1C[C@](CC#N)(n2cc(-c3nc(-c4cn[nH]c4)cc4ncccc34)cn2)C1 [Example 2, 2,2′-(trans-1-{4-[7-(1H-pyrazol-4-yl)-1,6-naphthyridin-5-yl]-1H-pyrazol-1-yl}cyclobutane-1,3-diyl)diacetonitrile]
37 | 26 | 5980 | 14 |  |  |  |  | N#CCC1CC(CC#N)(n2cc(-c3nc(-c4cn[nH]c4)cc4ncccc34)cn2)C1 (stereo not drawn) [Example 3, 2,2′-(cis-1-{4-[7-(1H-pyrazol-4-yl)-1,6-naphthyridin-5-yl]-1H-pyrazol-1-yl}cyclobutane-1,3-diyl)diacetonitrile]
97 | 26 | 5170 | 17 |  |  |  |  | Cn1cc(-c2cc3ncccc3c(-c3cnn(C4(CC#N)CN(CC(F)(F)F)C4)c3)n2)cn1 [Example 4, [3-{4-[7-(1-methyl-1H-pyrazol-4-yl)-1,6-naphthyridin-5-yl]-1H-pyrazol-1-yl}-1-(2,2,2-trifluoroethyl)azetidin-3-yl]acetonitrile]
365 |  | > 10000 | 15 |  |  |  |  | COc1nc(-c2cc3ncccc3c(-c3ccn([C@]4(CC#N)C[C@H](C#N)C4)n3)n2)ccc1N [Example 223, cis-3-{3-[7-(5-amino-6-methoxypyridin-2-yl)-1,6-naphthyridin-5-yl]-1H-pyrazol-1-yl}-3-(cyanomethyl)cyclobutanecarbonitrile]
9580 |  | > 10000 | 347 |  |  |  |  | N#CCC1(n2ccc(-c3nc(-c4ccnnc4)cc4ncccc34)n2)CN(CC(F)(F)F)C1 [Example 233, [3-{3-[7-(pyridazin-4-yl)-1,6-naphthyridin-5-yl]-1H-pyrazol-1-yl}-1-(2,2,2-trifluoroethyl)azetidin-3-yl]acetonitrile]
12 |  | 454 | 11 |  |  |  |  | CS(=O)(=O)Nc1ccc(-c2cc3ncccc3c(-c3ccn([C@]4(CC#N)C[C@@H](C#N)C4)n3)n2)cc1 [Example 256, N-[4-(5-{1-[cis-3-cyano-1-(cyanomethyl)cyclobutyl]-1H-pyrazol-3-yl}-1,6-naphthyridin-7-yl)phenyl]methanesulfonamide]
110 |  | 6420 | 20 |  |  |  |  | CS(=O)(=O)Nc1ccc(-c2cc3ncccc3c(-c3ccn([C@]4(CC#N)C[C@H](C#N)C4)n3)n2)cc1 [Example 257, N-[4-(5-{1-[trans-3-cyano-1-(cyanomethyl)cyclobutyl]-1H-pyrazol-3-yl}-1,6-naphthyridin-7-yl)phenyl]methanesulfonamide]
594 |  | > 10000 | 23 |  |  |  |  | CS(=O)(=O)N1CC(CC#N)(n2ncc(-c3cc(-c4cc[nH]n4)cc4ncccc34)n2)C1 [Example 298, [1-(methylsulfonyl)-3-{4-[7-(1H-pyrazol-3-yl)quinolin-5-yl]-2H-1,2,3-triazol-2-yl}azetidin-3-yl]acetonitrile]
291 |  | 3320 | 16 |  |  |  |  | N#CCC1(n2ncc(-c3cc(-c4cc[nH]n4)cc4ncccc34)n2)CN(S(N)(=O)=O)C1 [Example 300, 3-(cyanomethyl)-3-{4-[7-(1H-pyrazol-3-yl)quinolin-5-yl]-2H-1,2,3-triazol-2-yl}azetidine-1-sulfonamide]
> 10000 |  | > 10000 | 1290 |  |  |  |  | Cn1ncc(-c2cc(-c3cnn([C@]4(CC#N)C[C@@H](C#N)C4)n3)c3cccnc3c2)c1CO [Example 328, trans-3-(cyanomethyl)-3-(4-{7-[5-(hydroxymethyl)-1-methyl-1H-pyrazol-4-yl]quinolin-5-yl}-2H-1,2,3-triazol-2-yl)cyclobutanecarbonitrile]
1690 |  | > 10000 | 16 |  |  |  |  | Cn1cc(-c2cc(-c3cnn([C@]4(CC#N)C[C@H](C#N)C4)n3)c3cccnc3c2)c(N)n1 [Example 332, cis-3-{4-[7-(3-amino-1-methyl-1H-pyrazol-4-yl)quinolin-5-yl]-2H-1,2,3-triazol-2-yl}-3-(cyanomethyl)cyclobutanecarbonitrile]
5870 |  | > 10000 | 31 |  |  |  |  | Cn1cc(-c2cc(-c3cnn([C@]4(CC#N)C[C@@H](C#N)C4)n3)c3cccnc3c2)c(N)n1 [Example 333, trans-3-{4-[7-(3-amino-1-methyl-1H-pyrazol-4-yl)quinolin-5-yl]-2H-1,2,3-triazol-2-yl}-3-(cyanomethyl)cyclobutanecarbonitrile]
 | > 10000 |  | 5270 |  |  |  |  | Cn1ncc(-c2cc(-c3cnn([C@]4(CC#N)C[C@@H](C#N)C4)n3)c3cccnc3c2)c1C(N)=O [Example 335, 4-(5-{2-[trans-3-cyano-1-(cyanomethyl)cyclobutyl]-2H-1,2,3-triazol-4-yl}quinolin-7-yl)-1-methyl-1H-pyrazole-5-carboxamide]
 |  |  |  | 8560 | > 10000 | 1030 |  | N#CC[C@]1(n2ncc(-c3cc(-c4cnc(N)nc4)cc4ncccc34)n2)C[C@@H](C#N)C1 [Example 394, cis-3-{4-[7-(2-aminopyrimidin-5-yl)quinolin-5-yl]-2H-1,2,3-triazol-2-yl}-3-(cyanomethyl)cyclobutanecarbonitrile]
 |  |  |  | > 10000 | > 10000 |  | 8950 | N#CC[C@]1(n2ncc(-c3cc(-c4cncc(N)n4)cc4ncccc34)n2)C[C@H](C#N)C1 [Example 397, trans-3-{4-[7-(6-aminopyrazin-2-yl)quinolin-5-yl]-2H-1,2,3-triazol-2-yl}-3-(cyanomethyl)cyclobutanecarbonitrile]
 |  |  |  | > 10000 | > 10000 | 1090 |  | CS(=O)(=O)N1CC(CC#N)(n2ncc(-c3cc(-c4c[nH]c5nccc-5c4)cc4ncccc34)n2)C1 [Example 415, [1-(methylsulfonyl)-3-{4-[7-(7H-pyrrolo[2,3-b]pyridin-5-yl)quinolin-5-yl]-2H-1,2,3-triazol-2-yl}azetidin-3-yl]acetonitrile]
 |  |  |  | 631 | > 10000 | 33 |  | COc1nc(-c2cc(-c3cnn([C@]4(CC#N)C[C@H](C#N)C4)c3)n3ccnc3c2)ccc1N [Example 471, cis-3-{4-[7-(5-amino-6-methoxypyridin-2-yl)imidazo[1,2-a]pyridin-5-yl]-1H-pyrazol-1-yl}-3-(cyanomethyl)cyclobutanecarbonitrile]
 |  |  |  | > 10000 | > 10000 | 5670 |  | Cn1cc(-c2cc(-c3ccn(C4(CC#N)CN(CC(F)(F)F)C4)n3)n3ccnc3c2)cn1 [Example 472, [3-{3-[7-(1-methyl-1H-pyrazol-4-yl)imidazo[1,2-a]pyridin-5-yl]-1H-pyrazol-1-yl}-1-(2,2,2-trifluoroethyl)azetidin-3-yl]acetonitrile]

Compound | IC50 (JAK1) [nM] | IC50 (JAK2) [nM] | IC50 (JAK3) [nM] | IC50 (TYK2) [nM] | IC50 (JAK1; JAK Caliper enzyme assay) [nM] | IC50 (JAK3; JAK Caliper enzyme assay) [nM] | IC50 (TYK2; JAK Caliper enzyme assay) [nM] | IC50 (JAK2; JAK Caliper enzyme assay) [nM]
N#CC[C@]1(n2ccc(-c3nc(-c4ccc(N)c(C(N)=O)n4)cc4ncccc34)n2)C[C@H](C#N)C1 [Example 224, 3-amino-6-(5-{1-[cis-3-cyano-1-(cyanomethyl)cyclobutyl]-1H-pyrazol-3-yl}-1,6-naphthyridin-7-yl)pyridine-2-carboxamide] | 1940 |  | > 10000 | 45 |  |  |  | 
N#CC[C@]1(n2ccc(-c3nc(-c4ccc(N)c(C(N)=O)n4)cc4ncccc34)n2)C[C@@H](C#N)C1 [Example 225, 3-amino-6-(5-{1-[trans-3-cyano-1-(cyanomethyl)cyclobutyl]-1H-pyrazol-3-yl}-1,6-naphthyridin-7-yl)pyridine-2-carboxamide] | 215 |  | > 10000 | 9 |  |  |  | 
N#CC[C@]1(n2ncc(-c3cc(-c4cccc(C(N)=O)n4)cc4ncccc34)n2)C[C@H](C#N)C1 [Example 349, 6-(5-{2-[trans-3-cyano-1-(cyanomethyl)cyclobutyl]-2H-1,2,3-triazol-4-yl}quinolin-7-yl)pyridine-2-carboxamide] | 738 |  | > 10000 | 17 |  |  |  | 
N#CC[C@]1(n2ncc(-c3cc(-c4cccc(C(N)=O)n4)cc4ncccc34)n2)C[C@H](C#N)C1 [Example 350, 6-(5-{2-[cis-3-cyano-1-(cyanomethyl)cyclobutyl]-2H-1,2,3-triazol-4-yl}quinolin-7-yl)pyridine-2-carboxamide] | 97 |  | 2470 | 7 |  |  |  | 
